Our source for the IC50 values is US5439932A, “Substituted amine derivatives having anti-hyperlipemia activity” (Banyu Pharmaceutical Co., Ltd., priority 1990, dated 1995).

Where a name gives a salt, the structure may show the parent alone.

T1 sequence (Q14534 whole entry): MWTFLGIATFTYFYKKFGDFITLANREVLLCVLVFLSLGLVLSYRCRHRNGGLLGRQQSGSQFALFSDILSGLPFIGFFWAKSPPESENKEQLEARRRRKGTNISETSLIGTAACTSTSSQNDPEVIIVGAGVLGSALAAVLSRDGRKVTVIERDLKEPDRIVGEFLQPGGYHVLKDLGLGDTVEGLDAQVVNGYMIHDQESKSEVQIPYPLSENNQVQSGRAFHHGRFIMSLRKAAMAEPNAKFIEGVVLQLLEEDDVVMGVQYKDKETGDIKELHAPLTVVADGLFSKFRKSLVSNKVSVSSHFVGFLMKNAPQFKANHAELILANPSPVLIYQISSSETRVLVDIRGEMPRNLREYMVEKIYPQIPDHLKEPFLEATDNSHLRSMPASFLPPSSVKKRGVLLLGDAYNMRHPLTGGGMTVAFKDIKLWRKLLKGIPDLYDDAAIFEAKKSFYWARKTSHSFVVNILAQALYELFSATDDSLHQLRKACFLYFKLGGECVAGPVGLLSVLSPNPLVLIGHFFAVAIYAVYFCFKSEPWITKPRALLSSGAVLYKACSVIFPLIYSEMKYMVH

This assay addresses T1, Human squalene epoxidase (Homo sapiens, UniProt Q14534).
T1 construct: endogenous in cells; host or cells: Hep-G2 (human hepatoma) cells, microsomes solubilized with Triton X-100
As to the kind of experiment: Human squalene epoxidase inhibition action. Conditions: solubilized squalene epoxidase fraction from human hepatoma (Hep-G2) cells; 8 μM 3H-squalene; 37° C., 60 minutes; pH 7.5; read-out: 50% inhibitory concentration (IC50). It is filed as biochemical. As for the experimental part:
Squalene epoxidase inhibition action (1) Preparation of squalene epoxidase Human squalene epoxidase is prepared based on the method disclosed in J. Biol. Chem. 245, 1670 (1970) and ibid. 250, 1572 (1975). Namely, human hepatoma (Hep-G2) cells are cultured at 37° C. under 5% carbon dioxide-mixed air. After completion of the culture the cells are scraped and recovered by centrifugation. The cells are suspended (1×10^8 cells/ml) in a 0.1M Tris-HCl buffer (pH 7.5), the suspension is homogenized and centrifuged at 9,750×g for 10 minutes, and the sediment is washed with a 0.1M Tris-HCl buffer (pH 7.5) and centrifuged at 105,000×g for 1 hour. […] After this solubilization treatment, the solution is diluted with 1 mM EDTA and 1 mM dithiothreitol so that the Triton X-100 concentration becomes 0.125%, and then centrifuged at 105,000×g for 1 hour. The resulting supernatant is used in the later test as a squalene epoxidase fraction. (2) Method for measurement of squalene epoxidase activity Measurement of human squalene epoxidase activity is carried out based on the method disclosed in J. Biol. Chem. 245, 1670 (1970). Namely, […] of a dimethylsulfoxide solution of a test drug is added to a solution consisting of 0.2 ml of the squalene epoxidase fraction prepared in (1) [Protein amount 0.4 mg, 0.1% Triton X-100, […] buffer (pH 7.5)], 100 μM FAD, 1 mM NADPH, 1 mM EDTA and 8 μM ^3 H-squalene-Tween 80 suspension to make the total volume 0.3 ml, and the mixture is subjected to shaking reaction at 37° C. for 60 minutes. 0.3 ml of a 10% potassium hydroxide-methanol solution is added to stop the reaction, and the mixture is heated at 75° C. for 1 hour. Then, after extraction of the nonsaponified substances, the extract is concentrated to dryness in a stream of nitrogen. […] The position of the formed ^3 H-squalene-2,3-epoxide on TLC is ascertained using as a marker ergosterol acetate and the ^3 H-squalene-2,3-epoxidepart of TLC is cut out. The TLC piece is immersed in a toluene series scintillator and measurement is carried out using a liquid scintillation counter. By this, 50% inhibitory concentrations (IC50 values) of compounds of the invention on squalene epoxidase are determined, and the results are shown in the following table.
With `CCN(C/C=C/C#CC(C)(C)OC)Cc1cccc(COC/C=C/c2ccsc2)c1` [Example 7, (E,E)-N-ethyl-N-7(6-methoxy-6-methyl-2-hepten-4-ynyl)-3-3-(3-thienyl)-2-propenyloxymethyl]benzylamine hydrochloride], the IC50 is 300 pM.

Consider `CCN(C/C=C/C#CC(C)(C)OC)Cc1ccc(COC/C=C/c2ccsc2)o1` [Example 30, (E,E)-N-ethyl-N-(6-methoxy-6-methyl-2-hepten-4-ynyl)-5-[3-(3-thienyl)-2-propenyloxymethyl]-2-furylmethylamine hydrochloride], for which the IC50 amounted to 800 pM.

On to `CCN(C/C=C/C#CC(C)(C)CC)CCOCCOc1cccc(-c2ccsc2)c1` [Example 35, (E)-N-ethyl-N-(6,6-dimethyl-2-octen-4-ynyl)-2-[2-[3-(3-thienyl)phenoxy]ethoxy]ethylamine hydrochloride], for which the IC50 was 400 pM.

Turning to `CN(C/C=C/C#CC(C)(C)C)Cc1ccc(COC/C=C/c2ccsc2)o1` [Example 38, (E,E)-N-methyl-N-(6,6-dimethyl-2-hepten-4-ynyl)-5-[3-(3-thienyl)-2-propenyloxymethyl]-2-furylmethylamine], the IC50 stood at 200 pM.

In the case of `CCN(CC#C/C=C/C(C)(C)C)Cc1ccc(COC/C=C/c2ccsc2)o1` [Example 46, (E,E)-N-ethyl-N-(6,6-dimethyl-4-hepten-2-ynyl)-5-[3-(3-thienyl)-2-propenyloxymethyl]-2-furylmethylamine], the IC50 worked out at 400 pM.

Turning to `CCN(CC#CC#CC(C)(C)OC)Cc1ccc(/C=C/COCc2ccsc2)o1` [Example 48, (E)-N-ethyl-N-(6-methoxy-6-methyl-2,4-heptadiynyl)-5-[3-(3-thienylmethoxy)-1-propenyl]-2-furylmethylamine], the IC50 came out at 500 pM.
